{"source": "paper PMC11906762", "about": "“Toward a high-throughput in vitro model for estimating vitreous humor permeability of topically applied drugs” (Scientific Reports, 2025)", "key": {"[1]": {"assay": "Solubility in PBS buffer (pH 7.4) for PAMPA donor solutions", "format": "physicochemical", "conditions": "PBS pH 7.4; used at 100 µM instead of 250 µM nominal concentration"}, "[2]": {"assay": "Modified corneal-PAMPA, PBS as acceptor medium, UV-vis plate reader", "format": "in vitro ADME", "conditions": "general trend regardless of the acceptor medium"}, "[3]": {"assay": "PAMPA with freshly excised porcine vitreous humor as acceptor medium", "format": "in vitro ADME", "conditions": "250 µM API in PBS; UV detection; also after precipitation and filtering", "experimental": "(§1) For each assay 3 replicates per compounds were measured.\nThere has been an attempt made to use freshly excised porcine vitreous as acceptor medium in the experiments, for three APIs with sufficient absorption at a wavelength closer to the visible range (~ 300 nm) considering the cut-off of VH. […] When preparing the equilibrium solutions, one unit of API solution (250 µM, PBS) was mixed with (approximately) two units of VH. […] To gain clear spectra by removing background components, precipitation was attempted using cold acetonitrile, centrifugation, and filtration. […] The sample preparation process of VH containing samples was not further improved or investigated in this study."}, "[4]": {"assay": "PAMPA with HA-855 + agar (HA 0.07 w/v%; agar 0.095 w/v%) as acceptor medium", "conditions": "for permeability decrease with HA-855 + agar compared with agar alone: cationic compounds, acceptor HA-855 + agar vs agar", "experimental": "Finally, the solutions were stored at room temperature overnight.\nas §1\nIn their study three types of HA-agar hydrogels were investigated with various HA and agar content from rheological and particle migration aspects. Hyaluronate as a viscoelastic polymer is an essential part of the model (as a native component of the VH itself) while agar is used to achieve elasticity and so to mimic the properties of the naturally occurring collagen fibrils. As a result of their study, they found the hydrogel containing 0.7 mg/ml (0.07 w/v%) HA (high molecular weight) and 0.95 mg/ml (0.095 w/v%) agar to be the most similar to bovine VH in the above-mentioned experiments. Since they conducted no permeability measurements with this promising hydrogel, we tested it as an acceptor medium in the PAMPA measurements. To gain further insight, experiments using only agar-containing acceptor phase were also carried out, since the standalone effect of the high molecular weight Na-HA was already investigated."}, "[5]": {"assay": "PAMPA with HA-200 (0.1 w/v%) as acceptor medium", "conditions": "HA (HA-200, HA-855; 0.1 w/v%) as acceptor-phase component; very low permeability and interference of HA with absorbance signal"}}, "note": "Where a name gives a salt, the structure may show the parent alone."}
{"smiles": "NC(=O)N1c2ccccc2C=Cc2ccccc21", "note": "[carbamazepine]", "values": [{"measurement": "solubility (qualitative)", "setting": "[1]", "value": "poor solubility"}]}
{"smiles": "O=C(c1ccccc1)c1ccc2n1CCC2C(=O)O", "note": "(centres unmarked) [ketorolac]", "values": [{"measurement": "permeability (qualitative)", "setting": "[2]", "value": "low permeability"}, {"measurement": "detection of API in porcine vitreous humor acceptor medium", "setting": "[3]", "value": "no API could be detected"}]}
{"smiles": "CC(C)NCC(O)COc1cccc2ccccc12", "note": "(centres unmarked) [propranolol HCl, propranolol hydrochloride]", "values": [{"measurement": "permeability decrease with HA-855 + agar compared with agar alone", "setting": "[4]", "value": "decrease the permeability in a greater extent than agar alone"}]}
{"smiles": "CCn1cc(C(=O)O)c(=O)c2cc(F)c(N3CCNCC3)nc21", "note": "[enoxacin]", "values": [{"measurement": "detection in the acceptor medium", "setting": "[5]", "value": "could not be detected in the acceptor medium"}]}
{"smiles": "COc1c(N2C[C@@H]3CCCN[C@@H]3C2)c(F)cc2c(=O)c(C(=O)O)cn(C3CC3)c12", "note": "[moxifloxacin, moxifloxacin hydrochloride]", "values": [{"measurement": "permeability (qualitative)", "setting": "[2]", "value": "low permeability"}, {"measurement": "detection of API in porcine vitreous humor acceptor medium", "setting": "[3]", "value": "no API could be detected"}]}
{"smiles": "CC(C)(C)NC[C@H](O)COc1nsnc1N1CCOCC1", "note": "[timolol, timolol maleate]", "values": [{"measurement": "permeability decrease with HA-855 + agar compared with agar alone", "setting": "[4]", "value": "decrease the permeability in a greater extent than agar alone"}]}
{"smiles": "N=C(N)c1ccc(OCCCOc2ccc(C(=N)N)cc2)cc1", "note": "[propamidine]", "values": [{"measurement": "detection in the acceptor medium", "setting": "[5]", "value": "could not be detected in the acceptor medium"}]}
{"smiles": "CCCCNc1ccc(C(=O)OCCN(C)C)cc1", "note": "[tetracaine HCl, tetracaine hydrochloride]", "values": [{"measurement": "permeability decrease with HA-855 + agar compared with agar alone", "setting": "[4]", "value": "decrease the permeability in a greater extent than agar alone"}]}
{"smiles": "CNC(=C[N+](=O)[O-])NCCSCc1ccc(CN(C)C)o1", "note": "[ranitidine, ranitidine hydrochloride]", "values": [{"measurement": "detection in the acceptor medium", "setting": "[5]", "value": "could not be detected in the acceptor medium"}]}
{"smiles": "CCN(CC)CCCC(C)Nc1ccnc2cc(Cl)ccc12", "note": "(centres unmarked) [chloroquine diphosphate]", "values": [{"measurement": "permeability decrease with HA-855 + agar compared with agar alone", "setting": "[4]", "value": "decrease the permeability in a greater extent than agar alone"}]}
{"smiles": "C[C@@H]1C[C@H]2[C@@H]3CCC4=CC(=O)C=C[C@]4(C)[C@@]3(F)[C@@H](O)C[C@]2(C)[C@@]1(O)C(=O)CO", "note": "[dexamethasone]", "values": [{"measurement": "detection in the acceptor medium", "setting": "[5]", "value": "could not be detected in the acceptor medium"}, {"measurement": "solubility (qualitative)", "setting": "[1]", "value": "poor solubility"}]}
{"smiles": "CCCCOc1cc(C(=O)OCCN(CC)CC)ccc1N", "note": "[oxybuprocaine HCl, oxybuprocaine hydrochloride]", "values": [{"measurement": "permeability decrease with HA-855 + agar compared with agar alone", "setting": "[4]", "value": "decrease the permeability in a greater extent than agar alone"}]}
{"smiles": "O=C(O)Cc1ccccc1Nc1c(Cl)cccc1Cl", "note": "[diclofenac Na]", "values": [{"measurement": "direction of permeability change against corneal-PAMPA (PBS)", "setting": "[4]; acceptor HA-855 + agar", "value": "significant increase"}]}
{"smiles": "CNCC[C@H](Oc1cccc2ccccc12)c1cccs1", "note": "[duloxetine HCl, duloxetine hydrochloride]", "values": [{"measurement": "permeability decrease with HA-855 + agar compared with agar alone", "setting": "[4]", "value": "decrease the permeability in a greater extent than agar alone"}]}
